Measured values reported in publication PMC5012427 (Molecular cell, 2016).
Changes are numbered by the printed parent chain.

Assays:
[1] = target: T1, MBP-Coq8^NΔ41 (Saccharomyces cerevisiae, UniProt P27697); assay: co-purification, LC-MS/MS lipidomics; format: binding; details: co-purified from E. coli; WT compared with mutants
T1 sequence (P27697 42-501): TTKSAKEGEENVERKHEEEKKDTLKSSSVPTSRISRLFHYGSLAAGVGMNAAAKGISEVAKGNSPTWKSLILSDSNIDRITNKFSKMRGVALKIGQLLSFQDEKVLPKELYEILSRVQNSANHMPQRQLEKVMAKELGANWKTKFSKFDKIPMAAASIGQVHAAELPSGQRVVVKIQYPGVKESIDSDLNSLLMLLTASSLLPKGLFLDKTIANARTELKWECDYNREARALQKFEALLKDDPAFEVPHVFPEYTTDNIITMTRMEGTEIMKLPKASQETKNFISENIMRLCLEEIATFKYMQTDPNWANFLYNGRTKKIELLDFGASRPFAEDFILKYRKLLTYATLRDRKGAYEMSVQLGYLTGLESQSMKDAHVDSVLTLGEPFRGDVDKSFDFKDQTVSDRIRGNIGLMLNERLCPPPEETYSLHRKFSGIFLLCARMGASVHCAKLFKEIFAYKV

[2] = target: T2, Coq8^NΔ41 (Coq8p) (Saccharomyces cerevisiae, UniProt P27697, A197G); assay: nucleotide binding; details: A-rich loop A-to-G mutant
T2 sequence (P27697 42-501 A197G): T1 sequence (P27697 42-501) with A156G

CC(C)=CCC/C(C)=C/CC/C(C)=C/CC/C(C)=C/CC/C(C)=C/CC/C(C)=C/CC/C(C)=C/Cc1ccccc1O [heptaprenylphenol]
co-purification, LC-MS/MS lipidomics [1]: binding of OHB, OPP, and heptaprenylphenol (HPP) was decreased by Coq8p active site mutations

Nc1ncnc2c1ncn2[C@@H]1O[C@H](COP(=O)(O)OP(=O)(O)O)[C@@H](O)[C@H]1O [ADP]
nucleotide binding (method in supplement) [2]: selectivity for ADP over ATP that can be reversed by an A-rich loop A-to-G mutation
